IC50 data for 27 compounds are collected here from patent US20250034150A1, “BTK INHIBITORS” (BIOGEN MA INC., priority 2021, published 2025).

Where a name gives a salt, the structure may show the parent alone.

T1 sequence (Q06187 whole entry): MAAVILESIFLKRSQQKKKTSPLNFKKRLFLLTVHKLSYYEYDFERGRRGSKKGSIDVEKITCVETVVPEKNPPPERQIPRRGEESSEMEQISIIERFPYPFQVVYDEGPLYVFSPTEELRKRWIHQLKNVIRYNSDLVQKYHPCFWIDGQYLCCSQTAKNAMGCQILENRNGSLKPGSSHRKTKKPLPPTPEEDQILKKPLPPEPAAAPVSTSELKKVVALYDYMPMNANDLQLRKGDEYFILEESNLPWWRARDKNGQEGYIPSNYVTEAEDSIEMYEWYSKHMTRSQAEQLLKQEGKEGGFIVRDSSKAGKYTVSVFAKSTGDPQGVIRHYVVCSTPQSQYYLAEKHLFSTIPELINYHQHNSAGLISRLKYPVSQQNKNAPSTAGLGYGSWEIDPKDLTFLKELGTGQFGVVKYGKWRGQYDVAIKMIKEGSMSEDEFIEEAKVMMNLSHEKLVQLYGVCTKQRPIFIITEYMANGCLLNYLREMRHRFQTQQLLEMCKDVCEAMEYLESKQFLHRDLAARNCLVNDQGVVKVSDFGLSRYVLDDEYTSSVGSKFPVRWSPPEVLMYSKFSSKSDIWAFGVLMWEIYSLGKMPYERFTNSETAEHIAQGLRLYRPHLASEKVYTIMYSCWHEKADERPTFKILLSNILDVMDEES

This experiment addresses T1, BTK (Homo sapiens, UniProt Q06187).
T1 construct: purchased Upstate 14-552
The experiment can be described thus: In Vitro BTK Kinase Assay: Btk-PolyGAT-LS Assay. The experiment is classed as biochemical. The note with it: active BTK enzyme 0.25 nM, polyGAT 100 nM, 30 minutes, TRF readout; read-out: In Vitro BTK Kinase Assay IC50 Score. As to the method:
The purpose of the BTK in vitro assay is to determine compound potency against BTK through the measurement of IC50. Compound inhibition is measured after monitoring the amount of phosphorylation of a fluorescein-labeled polyGAT peptide (Invitrogen PV3611) in the presence of active BTK enzyme (Upstate 14-552), ATP, and inhibitor. The BTK kinase reaction was done in a black 96 well plate (costar 3694). For a typical assay, a 24 μL aliquot of a ATP/peptide master mix (final concentration; ATP […], polyGAT 100 nM) in kinase buffer (10 mM Tris-HCl pH 7.5, 10 mM MgCl2, 200 μM […], 5 mM DTT, 0.01% Triton X-100, and 0.2 mg/ml casein) is added to each well. Next, […] of a 4-fold, 40× compound titration in 100% DMSO solvent is added, followed by adding 15 μL of BTK enzyme mix in 1× kinase buffer (with a final concentration of 0.25 nM). The assay is incubated for 30 minutes before being stopped with 28 μL of a 50 mM EDTA solution. Aliquots (5 uL) of the kinase reaction are transferred to a low volume white 384 well plate (Coming 3674), and 5 μL of a 2× detection buffer (Invitrogen PV3574, with 4 nM Tb—PY20 antibody, Invitrogen PV3552) is added. The plate is covered and incubated for 45 minutes at room temperature. Time resolved fluorescence (TRF) on Molecular Devices M5 (332 nm excitation; 488 nm emission; 518 nm fluorescein emission) is measured. IC50 values are calculated using a four parameter fit with 100% enzyme activity determined from the DMSO control and 0% activity from the EDTA control.
In general, IC50 refers to the concentration at which inhibition is half-maximal. Take `Cn1cc(-c2cn3nccc3c(N3CCCC(CNC(=O)c4noc(C(C)(C)C)n4)CC3)n2)cn1` (stereo not drawn) [Example 166, 5-(tert-butyl)-N-((1-(6-(1-methyl-1H-pyrazol-4-yl)pyrazolo[1,5-a]pyrazin-4-yl)azepan-4-yl)methyl)-1,2,4-oxadiazole-3-carboxamide]: the 50% inhibitory concentration (IC50) was 0.01 to 1 µM.

As to `CN1CCN(c2cn3nccc3c(-c3ccc(CNC(=O)c4coc(C(C)(C)C)n4)c(F)c3)n2)CC1` [Example 129, 2-(tert-butyl)-N-(2-fluoro-4-(6-(4-methylpiperazin-1-yl)pyrazolo[1,5-alpyrazin-4-yl)benzyl)oxazole-4-carboxamide trifluoroacetate], the IC50 was 0.01 to 1 µM.

For the compound `Cn1cc(-c2cn3nccc3c(N3CC4CCC(C3)C4CNC(=O)c3noc(C(C)(C)C)n3)n2)cn1` [Example 165, 5-(tert-butyl)-N-(((1R,5S,8r)-3-(6-(1-methyl-1H-pyrazol-4-yl)pyrazolo[1,5-a]pyrazin-4-yl)-3-azabicyclo[3.2.1]octan-8-yl)methyl)-1,2,4-oxadiazole-3-carboxamide], the IC50 lay within 0.01 to 1 µM.

For the compound `Cn1cc(-c2cn3nccc3c(-c3ccc(CNC(=O)c4ccn(C(C)(C)C)n4)c(C(F)F)c3)n2)cn1` [Example 103, 1-(tert-butyl)-N-(2-(difluoromethyl)-4-(6-(1-methyl-1H-pyrazol-4-yl)pyrazolo[1,5-a]pyrazin-4-yl)benzyl)-1H-pyrazole-3-carboxamide], the IC50 lay within 0.001 to 0.01 µM.

On to `Cn1cc(-c2cn3nccc3c(N3C[C@H]4CC[C@@H](C3)[C@H]4CNC(=O)c3noc(C(C)(C)C)n3)n2)cn1` [Example 164, 5-(tert-butyl)-N-(((1R,5S,8s)-3-(6-(1-methyl-1H-pyrazol-4-yl)pyrazolo[1,5-a]pyrazin-4-yl)-3-azabicyclo[3.2.1]octan-8-yl)methyl)-1,2,4-oxadiazole-3-carboxamide], for which the IC50 lay in the range of 0.01 to 1 µM.

For `Cn1cc(-c2cn3nccc3c(N3CCC(C)(CNC(=O)c4cn(C(C)(C)C)nn4)C3)n2)cn1` (stereo not drawn) [Example 49, 1-(tert-butyl)-N-((3-methyl-1-(6-(1-methyl-1H-pyrazol-4-yl)pyrazolo[1,5-a]pyrazin-4-yl)pyrrolidin-3-yl)methyl)-1H-1,2,3-triazole-4-carboxamide], the concentration for half-maximal inhibition (IC50) lay within 1 to 10 µM.

Take `CCCN1CCN(CC2CCN(c3nc(-c4cnn(C)c4)cn4nccc34)CC2)C(=O)C1` [Example 170, 1-((1-(6-(1-methyl-1H-pyrazol-4-yl)pyrazolo[1,5-a]pyrazin-4-yl)piperidin-4-yl)methyl)-4-propylpiperazin-2-one hydrochloride]: the IC50 was in the range of 1 to 10 µM.

Regarding `CC(C)(C)n1cc(C(=O)NCc2ccc(-c3nc(N4CCOCC4)cn4nccc34)cc2)nn1` [Example 26, 1-(tert-butyl)-N-(4-(6-morpholinopyrazolo[1,5-a]pyrazin-4-yl)benzyl)-1H-1,2,3-triazole-4-carboxamide], the IC50 was in the range of 0.01 to 1 µM.

As to `CC(C)(C)n1cc(C(=O)NCc2ccc(-c3nc(N4CCOCC4)cn4nccc34)cc2)cn1` [Example 27, 1-(tert-butyl)-N-(4-(6-morpholinopyrazolo[1,5-a]pyrazin-4-yl)benzyl)-1H-pyrazole-4-carboxamide], the IC50 was 1 to 10 µM.

In the case of `Cn1cc(-c2cn3nccc3c(N3CCC4(CC(NC(=O)c5noc(C(C)(C)C)n5)C4)C3)n2)cn1` (single isomer, unassigned) [Example 53, 5-(tert-butyl)-N-((2r,4s)-6-(6-(1-methyl-1H-pyrazol-4-yl)pyrazolo[1,5-a]pyrazin-4-yl)-6-azaspiro[3.4]octan-2-yl)-1,2,4-oxadiazole-3-carboxamide], the IC50 was in the range of 0.01 to 1 µM.

On to `Cn1cc(-c2cn3nccc3c(N3CCC(CN4CCN(CC5CCC5)CC4=O)CC3)n2)cn1` [Example 169, 4-(Cyclobutylmethyl)-1-((1-(6-(1-methyl-1H-pyrazol-4-yl)pyrazolo[1,5-a]pyrazin-4-yl)piperidin-4-yl)methyl)piperazin-2-one], for which the IC50 fell in the range of 0.01 to 1 µM.

Consider `Cn1cc(-c2cn3nccc3c(N3CCC(C)(CNC(=O)c4noc(C(C)(C)C)n4)C3)n2)cn1` (stereo not drawn) [Example 42, 5-(tert-butyl)-N-((3-methyl-1-(6-(1-methyl-1H-pyrazol-4-yl)pyrazolo[1,5-a]pyrazin-4-yl)pyrrolidin-3-yl)methyl)-1,2,4-oxadiazole-3-carboxamide], for which the 50% inhibitory concentration (IC50) lay in the range of 1 to 10 µM.

For the compound `Cn1cc(-c2cn3nccc3c(N3CCC(C)(CNC(=O)c4cnc(C(C)(C)C)o4)C3)n2)cn1` (stereo not drawn) [Example 50, 2-(tert-butyl)-N-((3-methyl-1-(6-(1-methyl-1H-pyrazol-4-yl)pyrazolo[1,5-a]pyrazin-4-yl)pyrrolidin-3-yl)methyl)oxazole-5-carboxamide], the IC50 lay within 1 to 10 µM.

As to `Cn1cc(-c2cc(-c3ccc(CNC(=O)c4cnn(C(C)(C)C)c4)cc3)n3cnnc3c2)cn1` [Example 77, 1-(tert-butyl)-N-(4-(7-(1-methyl-1H-pyrazol-4-yl)-[1,2,4]triazolo[4,3-a]pyridin-5-yl)benzyl)-1H-pyrazole-4-carboxamide], the half-maximal inhibitory concentration (IC50) lay in the range of 0.01 to 1 µM.

As for `CC(NC(=O)c1cn(C(C)(C)C)nn1)C1CCN(c2nc(-c3cnn(C)c3)cn3nccc23)CC1` (stereo not drawn) [Example 163, 1-(tert-butyl)-N-(1-(1-(6-(1-methyl-1H-pyrazol-4-yl)pyrazolo[1,5-a]pyrazin-4-yl)piperidin-4-yl)ethyl)-1H-1,2,3-triazole-4-carboxamide], the IC50 was 0.01 to 1 µM.

As to `Cn1cc(-c2cn3nccc3c(N3CCC(C)(CNC(=O)c4noc(C5(C)CC5)n4)C3)n2)cn1` (stereo not drawn) [Example 51, N-((3-methyl-1-(6-(1-methyl-1H-pyrazol-4-yl)pyrazolo[1,5-a]pyrazin-4-yl)pyrrolidin-3-yl)methyl)-5-(1-methylcyclopropyl)-1,2,4-oxadiazole-3-carboxamide], the IC50 was in the range of 1 to 10 µM.

Turning to `Cn1cc(-c2cn3nccc3c(N3CCC4(CC(NC(=O)c5noc(C(C)(C)C)n5)C4)C3)n2)cn1` (single isomer, unassigned) [Example 54, 5-(tert-butyl)-N-((2s,4r)-6-(6-(1-methyl-1H-pyrazol-4-yl)pyrazolo[1,5-a]pyrazin-4-yl)-6-azaspiro[3.4]octan-2-yl)-1,2,4-oxadiazole-3-carboxamide], the IC50 was 1 to 10 µM.

Regarding `CC(C)N1CCN(CC2CCN(c3nc(-c4cnn(C)c4)cn4nccc34)CC2)C(=O)C1` [Example 173, 4-isopropyl-1-((1-(6-(1-methyl-1H-pyrazol-4-yl)pyrazolo[1,5-a]pyrazin-4-yl)piperidin-4-yl)methyl)piperazin-2-one], the IC50 fell in the range of 1 to 10 µM.

In the case of `Cc1cc(-c2nc(N3CCN(C)CC3)cn3nccc23)ccc1CNC(=O)c1noc(C2(C)CC2)n1` [Example 131, N-(2-methyl-4-(6-(4-methylpiperazin-1-yl)pyrazolo[1,5-a]pyrazin-4-yl)benzyl)-5-(1-methylcyclopropyl)-1,2,4-oxadiazole-3-carboxamide trifluoroacetate], the IC50 was in the range of 0.001 to 0.01 µM.

For the compound `Cc1cc(-c2nc(N3CCN(C)CC3)cn3nccc23)ccc1CNC(=O)c1cnn(C(C)(C)C)n1` [Example 124, 2-(tert-butyl)-N-(2-methyl-4-(6-(4-methylpiperazin-1-yl)pyrazolo[1,5-a]pyrazin-4-yl)benzyl)-2H-1,2,3-triazole-4-carboxamide trifluoroacetate], the IC50 was in the range of 0.01 to 1 µM.

As for `Cn1cc(-c2cn3nccc3c(N3CCC(C)(CNC(=O)c4nnn(C(C)(C)C)n4)C3)n2)cn1` (stereo not drawn) [Example 48, 2-(tert-butyl)-N-((3-methyl-1-(6-(1-methyl-1H-pyrazol-4-yl)pyrazolo[1,5-a]pyrazin-4-yl)pyrrolidin-3-yl)methyl)-2H-tetrazole-5-carboxamide], the IC50 is 0.01 to 1 µM.

In the case of `C[C@@H]1C[C@H](CNC(=O)c2cn(C(C)(C)C)nn2)CCN1c1nc(-c2cnn(C)c2)cn2nccc12` (single isomer, unassigned) [Example 141], the IC50 fell in the range of 0.01 to 1 µM.

Take `CC(C)(C)c1nc(C(=O)NCc2ccc(-c3nc(N4CCC4)cn4nccc34)cc2)no1` [Example 134, N-(4-(6-(azetidin-1-yl)pyrazolo[1,5-a]pyrazin-4-yl)benzyl)-5-(tert-butyl)-1,2,4-oxadiazole-3-carboxamide]: the IC50 fell in the range of 0.001 to 0.01 µM.

Regarding `C[C@H]1C[C@H](CNC(=O)c2cn(C(C)(C)C)nn2)CCN1c1nc(-c2cnn(C)c2)cn2nccc12` (single isomer, unassigned) [Example 140], the IC50 fell in the range of 0.01 to 1 µM.

Consider `CN1CCN(c2cn3nccc3c(-c3ccc(CNC(=O)c4nnc(C(C)(C)C)o4)c(F)c3)n2)CC1` [Example 127], for which the IC50 lay in the range of 0.01 to 1 µM.

With `Cn1cc(-c2cn3nccc3c(N3CCC(F)(CNC(=O)c4cn(C(C)(C)C)nn4)CC3)n2)cn1` [Example 162, 1-(tert-butyl)-N-((4-fluoro-1-(6-(1-methyl-1H-pyrazol-4-yl)pyrazolo[1,5-a]pyrazin-4-yl)piperidin-4-yl)methyl)-1H-1,2,3-triazole-4-carboxamide trifluoroacetate], the IC50 was 0.01 to 1 µM.

`C[C@H]1C[C@@H](CNC(=O)c2cn(C(C)(C)C)nn2)CCN1c1nc(-c2cnn(C)c2)cn2nccc12` (single isomer, unassigned) [Example 142]: the IC50 lay in the range of 0.01 to 1 µM.
